Broadly, the solubility is the dissolved amount per volume that the medium holds. Low readings indicate a poorly soluble substance, high ones a readily soluble substance. One may read the IC50 as the concentration that inhibits the measured activity by half. A higher IC50 goes with weaker potency.

Each structure is given as a SMILES string. Converted amounts (≈) assume the structure as drawn.

The values below come from patent US11766443B2, “Cyclopentathiophene carboxamide derivatives as platelet activating factor receptor antagonists” (Boehringer Ingelheim International GmbH, priority 2021, dated 2023).

A short description of data set [1]: aqueous solubility in buffer (from DMSO stock, 24 h shaking, LC-UV). Conditions: pH 2.2, aqueous buffer, kinetic from dmso stock.
Protocol: (§1) The aqueous solubility of the test compound is determined by comparing the amount dissolved in buffer to the amount in an ACN/water (1/1) solution. Starting from a 10 mM DMSO stock solution aliquots are diluted with ACN/water (1/1) or buffer, respectively. After 24 h of shaking, the solutions are filtrated and analyzed by LC-UV. The amount dissolved in buffer is compared to the amount in the ACN solution.
(§2) Solubility will usually be measured from 0.001 to 0.125 mg/mL at a DMSO concentration of 2.5%. If more than 90% of the compound is dissolved in buffer, the value is marked with “>”.
Data set [2] in a line: chemical stability in acidic aqueous media (pH ca. 1.2), HPLC recovery. It is filed as physicochemical. Conditions: acetonitrile/0.1 M aqueous HCl 2:3, pH ca. 1.2, 37° C. The protocol: Degradation studies are used to simulate chemical stability of compounds in the acidic part of the gastro intestinal tract. The compounds of the invention show high chemical stability in acidic aqueous media (pH value ca. 1.2) what makes their application as medical drugs to treat human diseases less restricted and troublesome.
The chemical stability of the compounds of the invention at pH value of ca. 1.2 is determined as follows: Compound is dissolved in an HPLC vial in a mixture of acetonitrile/0.1 M aqueous HCl (ratio: 2:3; pH ca. 1.2) to get a concentration of approximately 0.25 mg/ml. The vial is then transferred into an HPLC autosampler system and maintained at a temperature of 37° C. A first sample is taken and injected immediately into a standard HPLC system with a UV DAD detector. A further samples is injected after 24 hours. Amount of degraded compound is measured by determining the recovery rate of compound [%] for the 24 h injection using an HPLC standard gradient method. Therefore the peak area of the main peak for the first injection (AUt0) is determined and set as 100%. Peak area of the main peak is determined also for the 24 h injection (AU24 h) and expressed as fraction of (AU24 h)/(AUt0)[%].

The next data set deals with T1, human PAFR (Homo sapiens, UniProt P25105).
T1 construct: expressed in transfected cells; host or cells: HEK293
T1 sequence (P25105 whole entry): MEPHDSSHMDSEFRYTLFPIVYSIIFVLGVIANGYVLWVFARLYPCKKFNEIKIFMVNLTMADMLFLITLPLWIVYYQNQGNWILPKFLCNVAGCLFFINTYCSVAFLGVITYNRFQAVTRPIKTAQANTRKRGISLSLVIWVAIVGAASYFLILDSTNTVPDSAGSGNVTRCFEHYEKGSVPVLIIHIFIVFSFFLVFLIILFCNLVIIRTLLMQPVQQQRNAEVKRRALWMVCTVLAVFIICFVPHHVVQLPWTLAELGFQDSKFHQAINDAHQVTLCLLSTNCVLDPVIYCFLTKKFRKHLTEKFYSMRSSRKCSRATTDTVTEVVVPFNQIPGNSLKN
Briefly: cellular HTRF IP1 endpoint assay: inhibition of PAFR activation by PAF C-16 ligand. The data set is classed as cell-based. Conditions: HEK293 cells overexpressing human PAFR; PAF ligand 11 nM. The procedure: The ability of compounds of formula (I.0) to inhibit the activation of the PAF receptor (PAFR) by the PAF C-16 ligand (PAF) is determined using the following cellular HTRF IP1 assay (IP1 Gq assay kit from Cisbio, Cat. no.: 62IP1APEJ) in assay buffer (1×HBSS, 20 mM Hepes, pH 7.4, 50 mM LiCl and containing 0.1% (w/v) BSA):
HEK293 cells overexpressing human PAFR (produced in-house) are seeded into a Poly-D-Lysine coated 384 well white cell culture microtiter assay plate with lid (15.000 cells per well). Subsequently, the plates are incubated over night at 37° C./5% CO2. On the next day, cells are being washed and subsequently, various concentrations of the test compounds (compounds in 100% DMSO; final concentration of DMSO in wells is 1%) are added to the assay plate via Echo 555 acoustic liquid handler. Plates are then incubated with lid for 90 minutes at 37° C./5% CO2. Thereafter, PAF ligand (Cayman Chemical Company, Item no.: 60900) is added at a final concentration of 11 nM. Plates are then incubated with lid for 60 minutes at 37° C./5% CO2. Then, 5 μl per well of Anti-IP1-Anti body-Cryptate solution and 5 μL per well of IP1-d2 solution are added to all wells of the plate and the plate is incubated for another 60 minutes light protected at room temperature. The emissions at 620 nm and 665 nm (Excitation wavelength: 320 nm) are measured using an Envision Reader (PerkinElmer).

The nature of another data set: physchem. Conditions: pH 2.2, aqueous buffer, kinetic from dmso stock.

Protocol for physchem: as §1, §2

Molecule `CCCNC(=O)[C@@H]1Cc2sc3c(c2C1)[C@H](c1ccccc1Cl)NCc1nnc(C)n1-3` [Example 19] gave a solubility at 24 h in data set [1] greater than 111 µg/mL. The “Amount of degradation after 24 h” value in data set [2] was determined as 3%. The molecule further came in with an IC50 on human PAFR of 3 nM.
On to `Cc1nnc2n1-c1sc3c(c1[C@H](c1ccccc1Cl)NC2)C[C@H](C(=O)N1CC2CC1C2)C3` [Example 21], for which, in data set [1], the solubility at 24 h is greater than 105 µg/mL. Further, the “Amount of degradation after 24 h” value in data set [2] amounted to 1%. Moreover, inhibition against human PAFR was half-maximal at 9.1 nM (IC50).
`Cc1nnc2n1-c1sc3c(c1[C@H](c1ccccc1Cl)NC2)C[C@H](C(=O)NCCOC(F)(F)F)C3` [Example 17] registered a solubility at 24 h in data set [1] greater than 114 µg/mL. For the same molecule, in data set [2], the “Amount of degradation after 24 h” value was determined as 2%. Besides, at human PAFR, the midpoint of inhibition, the IC50, lay at 2.8 nM.
Turning to `Cc1nnc2n1-c1sc3c(c1[C@H](c1ccccc1Cl)NC2)C[C@H](C(=O)N1CCOC(C)(C)C1)C3` [Example 26], the solubility at 24 h in data set [1] was greater than 136 µg/mL. Also, the “Amount of degradation after 24 h” value in data set [2] amounted to 2.5%^. For the same molecule, at human PAFR, it took 4.9 nM to reach half-maximal inhibition (IC50).
Molecule `Cc1nnc2n1-c1sc3c(c1[C@H](c1ccccc1Cl)NC2)C[C@H](C(=O)N1CCOCC1)C3` [Example 2, (9R,13S)-9-(2-Chlorophenyl)-3-methyl-13-(morpholine-4-carbonyl)-16-thia-2,4,5,8-tetraazatetracyclo[8.6.0.0^2,6.0^11,15]-hexadeca-1(10),3,5,11(15)-tetraene] came in with a solubility at 24 h in data set [1] greater than 117 µg/mL. Besides, the “Amount of degradation after 24 h” value in data set [2] was 1%. The molecule further had a half-maximal inhibitory concentration (IC50) at human PAFR of 30 nM.
The molecule `Cc1nnc2n1-c1sc3c(c1C(c1ccccc1Cl)NC2)CC(C(=O)N1CCCC2(CC2)C1)C3` (stereo not shown) [Example 66, 13-{5-Azaspiro[2.5]octane-5-carbonyl}-9-(2-chlorophenyl)-3-methyl-16-thia-2,4,5,8-tetraazatetracyclo-[8.6.0.0^2,6.0^11,15]hexadeca-1(10),3,5,11(15)-tetraene] registered a solubility at 24 h in “physchem” greater than 124 µg/mL. Moreover, the IC50 against human PAFR was 2.7 nM.
`Cc1nnc2n1-c1sc3c(c1C(c1ccccc1O)NC2)CC(C(=O)N1CCOCC1)C3` (racemic) [Example 61, 2-[3-Methyl-13-(morpholine-4-carbonyl)-16-thia-2,4,5,8-tetraazatetracyclo[8.6.0.0^2,6.0^11,15]hexadeca-1(10),3,5,11(15)-tetraen-9-yl]phenol] gave a solubility at 24 h in data set [1] greater than 113 µg/mL. Also, the concentration for half-maximal inhibition (IC50) at human PAFR is greater than 322 nM.
Take `CCc1nnc2n1-c1sc3c(c1[C@H](c1ccccc1Cl)NC2)C[C@H](C(=O)N1CCOCC1)C3` [Example 69]: the solubility at 24 h in data set [1] was greater than 121 µg/mL. The same molecule registered a 50% inhibitory concentration (IC50) on human PAFR of 35 nM.
In data set [1], `Cc1nnc2n1-c1sc3c(c1[C@H](c1ccccc1Cl)NC2)C[C@H](C(=O)NC(C)(C)CO)C3` [Example 33] yielded a solubility at 24 h greater than 139 µg/mL. The molecule further gave an IC50 on human PAFR of 2.8 nM.
On the same counts, the results for `Cc1nnc2n1-c1sc3c(c1[C@H](c1ccccc1Cl)NC2)C[C@H](C(=O)N1CC2(CCCO2)C1)C3` [Example 22] are greater than 112 µg/mL and 5.3 nM.
Take `Cc1nnc2n1-c1sc3c(c1[C@@H](c1ccccc1Cl)NC2)C[C@H](C(=O)N1CCOCC1)C3` [Example 3, (9S,13S)-9-(2-chlorophenyl)-3-methyl-13-(morpholine-4-carbonyl)-16-thia-2,4,5,8-tetraazatetracyclo[8.6.0.0^2,6.0^11,15]-hexadeca-1(10),3,5,11(15)-tetraene]: in data set [1], the solubility at 24 h is greater than 118 µg/mL. The 50% inhibitory concentration (IC50) against human PAFR was found to be 423 nM.
On the same counts, the results for `Cc1nnc2n1-c1sc3c(c1[C@H](c1ccccc1Cl)NC2)C[C@H](C(=O)NCc1cscn1)C3` [Example 39] are greater than 110 µg/mL and 60 nM.
On the same counts, the results for `Cc1nnc2n1-c1sc3c(c1[C@H](c1ccccc1Cl)NC2)C[C@H](C(=O)NC1CCC(F)(F)CC1)C3` [Example 23] are greater than 114 µg/mL and 1.3 nM.
For `Cc1nnc2n1-c1sc3c(c1[C@H](c1ccccc1Cl)NC2)C[C@H](C(=O)NCc1ccc(C(F)(F)F)nc1)C3` [Example 7], in that order: 130 µg/mL (≈ 233 µM) and 3.6 nM.
Turning to `Cc1nnc2n1-c1sc3c(c1[C@H](c1ccccc1Cl)NC2)C[C@H](C(=O)NCc1cncnc1)C3` [Example 42], the solubility at 24 h in data set [1] is greater than 121 µg/mL. For the same molecule, 138 nM corresponded to half-maximal inhibition at human PAFR (IC50).
For `Cc1nnc2n1-c1sc3c(c1[C@H](c1ccccc1Cl)NC2)C[C@H](C(=O)N1C[C@H](C)O[C@@H](C)C1)C3` [Example 6], in that order: greater than 112 µg/mL and 11 nM.
For `Cc1ncc(CNC(=O)[C@@H]2Cc3sc4c(c3C2)[C@H](c2ccccc2Cl)NCc2nnc(C)n2-4)s1` [Example 47], in that order: greater than 115 µg/mL and 12 nM.
`Cc1nnc2n1-c1sc3c(c1[C@@H](c1ccccc1Cl)NC2)C[C@H](C(=O)NCc1ccc(C(F)(F)F)cc1)C3` [Example 13] came in with a solubility at 24 h in data set [1] of 88 µg/mL (≈ 158 µM). This molecule also came in with a concentration for half-maximal inhibition (IC50) at human PAFR of 281 nM.
`Cc1nnc2n1-c1sc3c(c1[C@H](c1ccccc1Cl)NC2)C[C@H](C(=O)NC1CCC1)C3` [Example 28]: the solubility at 24 h in data set [1] was greater than 142 µg/mL. For the same molecule, in data set [2], the “Amount of degradation after 24 h” value came out at 0.5%^. At human PAFR, this molecule gave a 50% inhibitory concentration (IC50) of 1.7 nM.
In data set [1], `Cc1nnc2n1-c1sc3c(c1[C@H](c1ccccc1Cl)NC2)C[C@H](C(=O)NCc1ccc(Cl)cn1)C3` [Example 49] returned a solubility at 24 h of 101 µg/mL (≈ 192 µM). At human PAFR, this molecule registered a half-inhibitory concentration (IC50) of 1.9 nM.
